Assay results reported in patent publication US8383617B2, “Treatment of protein aggregation diseases” (priority 2007, dated 2013).
Where “and” joins values, the source holds several entries; their conditions need not be identical. Equal entries are not always repeated.

Key:
[1] = target: Synthetic beta-amyloid peptide 1-40 (Homo sapiens, UniProt P05067); assay: Seprion assay screen for compounds that affect amyloid aggregation; format: biochemical; conditions: test compounds at 1 mM; for Relative aggregation compared to 'no compound' aggregation control: peptide 2.8 μg/ml, 30 min at 37° C., Seprion assay signal
Chain of Synthetic beta-amyloid peptide 1-40 (P05067 672-711): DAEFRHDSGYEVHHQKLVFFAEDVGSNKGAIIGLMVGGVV

[2] = target: Synthetic beta-amyloid peptide (Homo sapiens, UniProt P05067); assay: PAGE and silver staining of aggregation reactions incubated with compounds; format: biochemical; conditions: peptide incubated in the presence of compound, FIG. 2
Chain of Synthetic beta-amyloid peptide (P05067 672-711): as above

beta-amyloid 1-42 [3] = target: T1, beta-amyloid 1-42 (Homo sapiens, UniProt P05067); assay: Seprion assay of brain extracts of treated hAPP(751) mice, beta-amyloid 1-42; format: in vivo; conditions: SDS extracts of brain; daily oral from 2 to 6 months of age; fluphenazine 0.5 mg/Kg, trimipramine 25 mg/Kg; one value per animal
T1 construct: ELISA and Seprion assay for amyloid — 1-40 and 1-42 on the SDS extracts; from tissue; host or cells: brain extracts of hAPP(751) transgenic mice
T1 sequence (P05067 672-713): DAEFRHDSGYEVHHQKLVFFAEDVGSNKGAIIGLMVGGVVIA

beta-amyloid 1-42 [4] = target: T1, beta-amyloid 1-42; assay: ELISA of brain extracts of treated hAPP(751) mice, beta-amyloid 1-42; format: in vivo; conditions: daily oral from 2 to 6 months of age, fluphenazine 0.5 mg/Kg, trimipramine 25 mg/Kg, one value per animal
beta-amyloid 1-40 [5] = target: T2, beta-amyloid 1-40 (Homo sapiens, UniProt P05067); assay: Seprion assay of brain extracts of treated hAPP(751) mice, beta-amyloid 1-40; format: in vivo; conditions: SDS extracts of brain; daily oral from 2 to 6 months of age; fluphenazine 0.5 mg/Kg, trimipramine 25 mg/Kg; one value per animal
T2 construct: These mice develop increased amounts of beta-amyloid 1-40 and 1-42 in the brain; from tissue; host or cells: brain extracts of hAPP(751) transgenic mice
T2 sequence (P05067 672-711): as the sequence (P05067 672-711) above

amyloid plaques = assay: Immunohistochemistry of brains of treated hAPP(751) mice for amyloid plaques; format: in vivo; conditions: immunohistochemistry of brain; daily oral from 2 to 6 months of age; fluphenazine 0.5 mg/Kg, trimipramine 25 mg/Kg
beta-amyloid 1-40 [6] = target: T2, beta-amyloid 1-40; assay: ELISA of brain extracts of treated hAPP(751) mice, beta-amyloid 1-40; format: in vivo; conditions: daily oral from 2 to 6 months of age, fluphenazine 0.5 mg/Kg, trimipramine 25 mg/Kg, one value per animal
[7] = Therapy of a patient with Gerstman-Straussler-Scheinker (GSS) syndrome; conditions: intraventricular, before the combination therapy

nortriptyline
Relative aggregation compared to 'no compound' aggregation control [1]: 189%

Clc1ccc2c(c1)C(N1CCNCC1)=Nc1ccccc1O2 [Amoxapine, amoxapine]
Relative aggregation compared to 'no compound' aggregation control [1]: 119%

CC(CN(C)C)CN1c2ccccc2CCc2ccccc21 (centres unmarked) [Trimipramine, trimipramine]
inhibition of amyloid aggregation by PAGE and silver staining [2]: inhibit the aggregation of the amyloid
Seprion assay beta-amyloid 1-42 OD420 nm (beta-amyloid 1-42 [3]): 0.26 OD420 nm and 2.26 OD420 nm and 0.98 OD420 nm and 0.64 OD420 nm
Relative aggregation compared to 'no compound' aggregation control [1]: 259%
ELISA beta-amyloid 1-42 ng (beta-amyloid 1-42 [4]; SDS extracts of brain): 346 ng and 369 ng and 529 ng and 350 ng
ELISA beta-amyloid 1-42 ng (beta-amyloid 1-42 [4]; formic acid extracts of brain): 174 ng and 185 ng and 311 ng and 213 ng
Seprion assay beta-amyloid 1-40 OD420 nm (beta-amyloid 1-40 [5]): 0.11 OD420 nm and 0.58 OD420 nm and 0.14 OD420 nm and 0.10 OD420 nm
plaque reduction (amyloid plaques): 15%
ELISA beta-amyloid 1-40 ng (beta-amyloid 1-40 [6]; SDS extracts of brain): 169 ng and 101 ng and 195 ng and 89 ng
ELISA beta-amyloid 1-40 ng (beta-amyloid 1-40 [6]; formic acid extracts of brain): 127 ng and 111 ng and 182 ng and 115 ng

protryptyline [Protriptyline]
Relative aggregation compared to 'no compound' aggregation control [1]: 184%

pentosan polysulphate
clinical effect [7]: had no effect

OCCN1CCN(CCC=C2c3ccccc3Sc3ccc(C(F)(F)F)cc32)CC1 [Flupenthixol, cis-(Z)-flupenthixol]
Relative aggregation compared to 'no compound' aggregation control [1]: 48.2%

c1ccc2c(c1)Nc1ccccc1S2 [Phenothiazine]
Relative aggregation compared to 'no compound' aggregation control [1]: 80%

CN(C)CCCN1c2ccccc2Sc2ccccc21.Cl [Promazine, promazine]
inhibition of amyloid aggregation by PAGE and silver staining [2]: inhibit the aggregation of the amyloid
Relative aggregation compared to 'no compound' aggregation control [1]: 44.5%

CCN(CC)CCCC(C)Nc1c2ccc(Cl)cc2nc2ccc(OC)cc12 (centres unmarked) [quinacrine]
effect on amyloid aggregation (in words) ([1]; Seprion assay screen): not effective

OCCN1CCN(CCCN2c3ccccc3Sc3ccc(C(F)(F)F)cc32)CC1 [Fluphenazine, fluphenazine]
Seprion assay beta-amyloid 1-42 OD420 nm (beta-amyloid 1-42 [3]): 0.93 OD420 nm and 0.68 OD420 nm
ELISA beta-amyloid 1-42 ng (beta-amyloid 1-42 [4]; SDS extracts of brain): 295 ng and 165 ng
ELISA beta-amyloid 1-42 ng (beta-amyloid 1-42 [4]; formic acid extracts of brain): 143 ng and 197 ng
Seprion assay beta-amyloid 1-40 OD420 nm (beta-amyloid 1-40 [5]): 0.18 OD420 nm and 0.09 OD420 nm
plaque reduction (amyloid plaques): 23%
ELISA beta-amyloid 1-40 ng (beta-amyloid 1-40 [6]; SDS extracts of brain): 88 ng and 51 ng
ELISA beta-amyloid 1-40 ng (beta-amyloid 1-40 [6]; formic acid extracts of brain): 116 ng and 119 ng

CN1CCN(CC/C=C2/c3ccccc3Sc3ccc(S(=O)(=O)N(C)C)cc32)CC1 [Cis-thiothixene, cis-thiothixene]
Relative aggregation compared to 'no compound' aggregation control [1]: 42%
